Like-named read-outs stand apart in the source and are kept apart here.
Experiments:
[1] = tested on: U-2 OS cells; test: Cytotox CALUX; settings: for PoD cytotoxicity: 24 h exposure, lowest effect level PC20, means from 3 assay runs
[2] = parameters: method as in Hardman JG 2001; settings: known Cmax in man; ref Hardman JG 2001; cited from earlier work
[3] = target: T1, Pregnane X receptor (Homo sapiens, UniProt O75469); test: PXR CALUX; assay type: cell-based; settings: 24 h exposure, lowest effect level PC10, means from 3 assay runs
T1 construct: host or cells: U-2 OS
T1 sequence (O75469 1-434): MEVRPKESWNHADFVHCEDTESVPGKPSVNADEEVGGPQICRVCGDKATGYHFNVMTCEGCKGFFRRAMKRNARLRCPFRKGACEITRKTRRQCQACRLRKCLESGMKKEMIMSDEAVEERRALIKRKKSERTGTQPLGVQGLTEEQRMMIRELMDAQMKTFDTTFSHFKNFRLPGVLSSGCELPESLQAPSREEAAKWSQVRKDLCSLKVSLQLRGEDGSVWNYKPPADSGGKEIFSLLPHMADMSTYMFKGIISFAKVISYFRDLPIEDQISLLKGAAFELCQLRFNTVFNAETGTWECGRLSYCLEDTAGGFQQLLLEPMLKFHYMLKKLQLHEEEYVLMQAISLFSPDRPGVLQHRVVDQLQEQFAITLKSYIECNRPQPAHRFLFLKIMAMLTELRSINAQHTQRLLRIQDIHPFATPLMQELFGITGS
Protocol: (§1) After 24 h, exposure medium was prepared. […] All samples were tested in triplicates. […] Fig. SM_4. […] Fig. SM_4.
(§2) Supplementary Material SM_4
(§3) Overview of CALUX assays.
(§4) This is defined as the concentration of test compound […]
(§5) for an antagonist assay is a PC20.
(§6) PC = positive control. FI = fold induction. PC10: concentration where test compound causes an activation equal to 10% of the maximum effect (positive control). PC20: concentration where test compound causes […]
(§7) FI=1.5: concentration where test
(§8) (A) exemplary graph of concentration- […]
(§9) receptor antagonism assay with PC20 as lowest-effect-level. (C) exemplary graph for assay with 1.5 fold inductionas lowest effect level. 9

[4] = tested on: Nrf2 (Oxidative stress); test: Nrf2 CALUX; assay type: cell-based, human; settings: 24 h exposure, lowest effect level FI=1.5, means from 3 assay runs
Protocol: as §1, §2, §3, §4, §5, §6, §7, §8, §9

[5] = target: T2, Progesterone receptor (Homo sapiens, UniProt P06401); test: PR-anti CALUX; assay type: cell-based; settings: 24 h exposure, lowest effect level PC20, reference agonist at EC50, means from 3 assay runs
T2 construct: host or cells: U-2 OS
T2 sequence (P06401 1-933): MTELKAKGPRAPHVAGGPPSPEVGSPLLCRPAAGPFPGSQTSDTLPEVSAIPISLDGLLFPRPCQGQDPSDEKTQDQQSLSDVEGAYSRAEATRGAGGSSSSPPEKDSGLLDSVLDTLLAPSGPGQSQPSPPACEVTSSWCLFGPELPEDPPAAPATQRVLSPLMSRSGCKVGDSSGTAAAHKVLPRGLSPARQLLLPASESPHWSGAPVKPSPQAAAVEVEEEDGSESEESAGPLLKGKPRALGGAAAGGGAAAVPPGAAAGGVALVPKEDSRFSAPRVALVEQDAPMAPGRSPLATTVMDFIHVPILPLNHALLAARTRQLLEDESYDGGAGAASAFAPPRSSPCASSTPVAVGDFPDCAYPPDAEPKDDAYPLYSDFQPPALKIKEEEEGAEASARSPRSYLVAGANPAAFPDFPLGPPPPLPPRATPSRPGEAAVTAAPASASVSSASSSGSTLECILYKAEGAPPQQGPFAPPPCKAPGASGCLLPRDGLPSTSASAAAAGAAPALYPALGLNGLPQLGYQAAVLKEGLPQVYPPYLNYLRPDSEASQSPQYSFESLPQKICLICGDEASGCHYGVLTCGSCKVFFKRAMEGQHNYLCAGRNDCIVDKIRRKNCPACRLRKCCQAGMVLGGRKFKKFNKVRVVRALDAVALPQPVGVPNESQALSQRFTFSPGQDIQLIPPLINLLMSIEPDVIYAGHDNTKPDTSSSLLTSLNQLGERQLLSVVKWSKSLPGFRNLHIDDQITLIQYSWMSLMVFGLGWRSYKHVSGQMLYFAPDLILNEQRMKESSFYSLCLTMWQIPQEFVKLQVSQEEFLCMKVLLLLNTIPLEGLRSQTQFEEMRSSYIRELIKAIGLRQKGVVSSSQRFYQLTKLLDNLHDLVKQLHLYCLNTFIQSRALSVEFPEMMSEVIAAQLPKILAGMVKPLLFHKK
Protocol: as §1, §2, §3, §4, §5, §6, §7, §8, §9

[6] = target: T3, Aryl Hydrocarbon receptor (Rattus norvegicus, UniProt P41738); test: DR CALUX / AhR CALUX (rat hepatoma H-4-II-E cells); assay type: cell-based; settings: 24 h exposure, lowest effect level PC10, means from 3 assay runs
T3 construct: host or cells: rat hepatoma H-4-II-E (ATCC CRL-1548)
T3 sequence (P41738 10-853): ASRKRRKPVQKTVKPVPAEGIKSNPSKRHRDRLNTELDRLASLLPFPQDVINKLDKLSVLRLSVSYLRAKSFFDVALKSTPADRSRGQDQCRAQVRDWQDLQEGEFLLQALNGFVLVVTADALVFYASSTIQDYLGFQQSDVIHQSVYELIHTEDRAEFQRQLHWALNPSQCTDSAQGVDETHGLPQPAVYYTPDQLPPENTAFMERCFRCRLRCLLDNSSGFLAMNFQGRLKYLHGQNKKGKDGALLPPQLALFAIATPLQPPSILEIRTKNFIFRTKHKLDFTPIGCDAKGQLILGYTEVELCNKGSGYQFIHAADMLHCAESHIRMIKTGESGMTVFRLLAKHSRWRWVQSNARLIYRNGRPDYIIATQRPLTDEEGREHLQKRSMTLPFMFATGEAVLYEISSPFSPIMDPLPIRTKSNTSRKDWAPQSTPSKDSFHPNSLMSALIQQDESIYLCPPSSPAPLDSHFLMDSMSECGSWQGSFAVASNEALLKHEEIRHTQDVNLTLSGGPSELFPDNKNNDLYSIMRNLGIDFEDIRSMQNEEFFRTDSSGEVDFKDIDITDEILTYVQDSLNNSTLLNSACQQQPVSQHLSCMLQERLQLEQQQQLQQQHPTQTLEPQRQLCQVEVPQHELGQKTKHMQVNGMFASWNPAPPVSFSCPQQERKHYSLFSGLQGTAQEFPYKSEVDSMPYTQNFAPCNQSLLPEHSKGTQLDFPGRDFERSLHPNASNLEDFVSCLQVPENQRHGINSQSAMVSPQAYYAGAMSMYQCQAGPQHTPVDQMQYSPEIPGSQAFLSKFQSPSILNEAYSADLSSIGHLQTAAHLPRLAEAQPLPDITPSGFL

[7] = tested on: U-2 OS reporter cell lines battery; test: CALUX reporter gene assay battery as a whole
[8] = pooled test systems of the NAM panel (all test methods)
[9] = tested on: p53-dependent pathway activation / genotoxicity; assay type: cell-based, human; settings: 24 h exposure, lowest effect level FI=1.5, means from 3 assay runs
Protocol: as §1, §2, §3, §4, §5, §6, §7, §8, §9

[10] = tested on: U-2 OS cells; settings: human
[11] = tested on: Endoplasmic reticulum stress; test: ESRE CALUX; assay type: cell-based, human; settings: 24 h exposure, lowest effect level PC10, means from 3 assay runs
Protocol: as §1, §2, §3, §4, §5, §6, §7, §8, §9

[12] = all CALUX assays, 13 concentrations, 24 h exposure

Compound | PoD cytotoxicity [1] | Cmax [2] | PoD PXR - ago [3] | PoD Nrf2 [4] | PoD PR - anta [5] | response profile over the CALUX battery (in words) [7, 12] | PoD p53 [9] | also measured
COc1cc2c(c(OC)c1OC)-c1ccc(OC)c(=O)cc1[C@@H](NC(C)=O)CC2 [Colchicine] | 7.3 -log(M) | 449 µM |  |  |  |  |  | cytotoxic concentration [1]: 50 nM
CC(C)(C)C(O)(CCc1ccc(Cl)cc1)Cn1cncn1 (stereo not drawn) [Tebuconazole] | 4.3 -log(M) |  | 5.8 -log(M) | 4.2 -log(M) | 5.6 -log(M) |  |  | PoD AhR - ago [6]: 5.1 -log(M)
C[n+]1ccc(-c2ccccc2)cc1 [MPP^+, methyl-phenyl-pyridinium] |  |  |  |  |  | no effect |  | 
Cc1noc(NS(=O)(=O)c2ccc(N)cc2)c1C [Sulfisoxazole] |  | 464 µM |  |  |  | no effect |  | viability [8]: 100%
C=C(C)[C@H]1Cc2c(ccc3c2O[C@@H]2COc4cc(OC)c(OC)cc4[C@@H]2C3=O)O1 [Rotenone] | 5.7 -log(M) |  |  |  |  |  | 6.8 -log(M) | 
CO[C@H]1/C=C/O[C@@]2(C)Oc3c(C)c(O)c4c(O)c(c(/C=N/N5CCN(C)CC5)c(O)c4c3C2=O)NC(=O)/C(C)=C\C=C\[C@H](C)[C@H](O)[C@@H](C)[C@@H](O)[C@@H](C)[C@H](OC(C)=O)[C@@H]1C [Rifampicin] |  |  | 7.1 -log(M) | 4.6 -log(M) | 4.8 -log(M) |  | 4.2 -log(M) | PoD cytotoxicity [10]: 4.0; PoD ESRE [11]: 4.0 -log(M); response profile over the CALUX battery (in words) [7]: additionally activated several stress pathway related assays

Reference: PMC7367925, “The EU-ToxRisk method documentation, data processing and chemical testing pipeline for the regulatory use of new approach methods” (Archives of Toxicology, 2020)
